Experimental data: ChEMBL document CHEMBL2202962, “The discovery of a novel series of glucokinase activators based on a pyrazolopyrimidine scaffold” (Bioorg Med Chem Lett, 2012)
Converted amounts (≈) assume the structure as drawn.

What was measured:
[1] = system: Liver microsomes; test: Drug metabolism in human liver microsomes assessed as glutathione adduct formation relative to clozapine; assay type: ADME, Microsome
[2] = molecular target: T1, Hexokinase-4 (Homo sapiens, UniProt P35557); test: Activation of human glucokinase
T1 sequence (P35557 whole entry): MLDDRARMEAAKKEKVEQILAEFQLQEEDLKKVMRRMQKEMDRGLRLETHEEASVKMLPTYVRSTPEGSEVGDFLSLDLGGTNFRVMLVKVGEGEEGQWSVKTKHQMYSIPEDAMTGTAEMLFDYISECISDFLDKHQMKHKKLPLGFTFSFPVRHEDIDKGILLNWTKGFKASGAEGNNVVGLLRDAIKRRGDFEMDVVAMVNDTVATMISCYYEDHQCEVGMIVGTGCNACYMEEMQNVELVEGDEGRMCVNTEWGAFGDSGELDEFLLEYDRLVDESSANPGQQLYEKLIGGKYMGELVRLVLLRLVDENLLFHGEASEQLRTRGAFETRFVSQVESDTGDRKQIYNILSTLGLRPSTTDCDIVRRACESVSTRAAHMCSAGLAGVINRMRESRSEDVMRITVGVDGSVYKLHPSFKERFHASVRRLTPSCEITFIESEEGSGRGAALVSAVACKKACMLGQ

[3] = Octanol-water partition coefficient, log D of the compound by HPLC analysis
[4] = Oral bioavailability in rat; assay type: ADME, organism-based; conditions: in vivo
[5] = molecular target: Voltage-gated inwardly rectifying potassium channel KCNH2 (Homo sapiens, UniProt Q12809)
[6] = Volume of distribution at steady state in rat; assay type: ADME, organism-based; conditions: in vivo, read-out: Vdss
[7] = Clearance in rat; assay type: ADME, organism-based; conditions: in vivo
[8] = system: Hepatocyte; test: Intrinsic clearance in rat hepatocytes assessed per 10^6 cells; assay type: ADME, cell-based
[9] = Solubility of the compound

Chain of Voltage-gated inwardly rectifying potassium channel KCNH2 (Q12809 whole entry): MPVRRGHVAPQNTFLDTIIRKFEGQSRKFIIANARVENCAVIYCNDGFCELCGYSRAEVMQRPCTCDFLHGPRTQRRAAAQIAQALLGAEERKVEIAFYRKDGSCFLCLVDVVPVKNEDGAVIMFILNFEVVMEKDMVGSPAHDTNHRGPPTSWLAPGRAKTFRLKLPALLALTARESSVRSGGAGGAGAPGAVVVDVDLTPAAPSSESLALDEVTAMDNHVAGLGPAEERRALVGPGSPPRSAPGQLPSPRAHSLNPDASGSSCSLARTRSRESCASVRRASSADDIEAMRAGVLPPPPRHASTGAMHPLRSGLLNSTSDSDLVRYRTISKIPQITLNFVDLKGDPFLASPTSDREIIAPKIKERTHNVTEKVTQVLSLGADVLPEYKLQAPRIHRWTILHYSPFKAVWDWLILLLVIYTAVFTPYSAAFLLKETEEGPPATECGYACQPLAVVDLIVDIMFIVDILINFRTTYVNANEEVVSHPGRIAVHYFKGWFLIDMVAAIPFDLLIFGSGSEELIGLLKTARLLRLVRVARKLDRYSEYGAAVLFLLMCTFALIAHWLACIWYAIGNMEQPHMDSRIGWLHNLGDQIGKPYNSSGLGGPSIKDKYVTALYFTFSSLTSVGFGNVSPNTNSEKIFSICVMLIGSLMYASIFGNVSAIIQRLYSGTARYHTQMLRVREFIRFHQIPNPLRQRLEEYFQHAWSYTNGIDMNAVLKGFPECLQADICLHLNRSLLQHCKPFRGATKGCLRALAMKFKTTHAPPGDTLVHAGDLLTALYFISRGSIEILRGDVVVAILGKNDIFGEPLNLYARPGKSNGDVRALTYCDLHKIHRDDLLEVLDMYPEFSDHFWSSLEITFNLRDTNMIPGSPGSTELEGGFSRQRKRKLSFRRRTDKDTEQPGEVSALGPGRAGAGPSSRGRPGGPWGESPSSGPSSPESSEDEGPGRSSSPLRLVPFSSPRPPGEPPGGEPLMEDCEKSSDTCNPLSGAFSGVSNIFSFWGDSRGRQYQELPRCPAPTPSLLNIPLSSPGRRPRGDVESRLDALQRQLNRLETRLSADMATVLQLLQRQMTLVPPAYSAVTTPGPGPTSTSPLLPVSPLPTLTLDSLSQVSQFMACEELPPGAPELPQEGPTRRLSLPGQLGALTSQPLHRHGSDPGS

Structure (SMILES) | fold change (FC) [1] | EC50 [2] [nM] | logD [3] | also measured
Cc1csc(NC(=O)CSc2ncnc3c2cnn3-c2ccccc2Cl)n1 | 5 | 2510 | 3.8 | 
Cc1csc(NC(=O)CSc2ncnc3c2cnn3-c2ccccc2)n1 |  | > 100000 |  | 
O=C(CSc1ncnc2c1cnn2-c1ccccc1Cl)Nc1ccccc1 | 5 | > 100000 | 4.3 | 
Cc1ccc(NC(=O)CSc2ncnc3c2cnn3-c2ccccc2Cl)nc1 | 5 | 501 | 4.2 | 
O=C(CSc1ncnc2c1cnn2-c1ccccc1Cl)Nc1ncccn1 | 5 | > 100000 | 2.2 | 
Cn1ccc(NC(=O)CSc2ncnc3c2cnn3-c2ccccc2Cl)n1 | 5 | 15800 | 2.5 | 
Cc1csc(NC(=O)COc2ncnc3c2cnn3-c2ccccc2Cl)n1 |  | 1580 | 3.2 | 
COCC[C@H](Oc1ncnc2c1cnn2-c1ccccc1Cl)C(=O)Nc1ccc(C)cn1 |  | 50.1 | 3.9 | bioavailability [4]: 53%; IC50 [5]: 22000 nM; Vd [6]: 3.2 L/kg; clearance [7]: 34 mL/min/kg; CLint [8]: 35 µL/min/1e6 cells; solubility [9]: 95 µM (≈ 43 µg/mL)
COCC[C@H](Oc1ncnc2c1cnn2-c1ccccc1C(F)(F)F)C(=O)Nc1ccc(C)cn1 |  |  |  | CLint [8]: 27 µL/min/1e6 cells
COCC[C@H](Oc1ncnc2c1cnn2-c1ccccc1OC)C(=O)Nc1ccc(C)cn1 |  | 126 | 3.5 | IC50 [5]: > 33000 nM; CLint [8]: 132 µL/min/1e6 cells; solubility [9]: 86 µM (≈ 38.6 µg/mL)
CCCCC(Sc1ncnc2c1cnn2-c1ccccc1Cl)C(=O)Nc1nc(C)cs1 (racemic) | 5 | 631 | 6.4 | 
COCCC(Sc1ncnc2c1cnn2-c1ccccc1Cl)C(=O)Nc1nc(C)cs1 (racemic) | 5 | 794 | 4.8 | 
COCCOCCC(Sc1ncnc2c1cnn2-c1ccccc1Cl)C(=O)Nc1nc(C)cs1 (racemic) | 5 | 3160 | 4.7 | 
Cc1csc(NC(=O)C(Sc2ncnc3c2cnn3-c2ccccc2Cl)c2ccccc2)n1 (racemic) | 5 | > 100000 | 5.6 | 
CCCCC(Oc1ncnc2c1cnn2-c1ccccc1Cl)C(=O)Nc1nc(C)cs1 (racemic) |  | 126 | 5.7 | 
COCCC(Oc1ncnc2c1cnn2-c1ccccc1Cl)C(=O)Nc1ccc(C)cn1 (racemic) |  | 100 | 4.1 | 
COCCC(Oc1ncnc2c1cnn2-c1ccccc1C)C(=O)Nc1ccc(C)cn1 (racemic) |  | 316 | 4.2 | 
COCCC(Oc1ncnc2c1cnn2-c1ccccc1OC)C(=O)Nc1ccc(C)cn1 (racemic) |  | 200 | 3.5 | 
